Results from patent publication US6667340B1, “Inhibitors of phosphatidyl myo-inositol cycle” (Arizona Board of Regents on behalf of the University of …, priority 1998, dated 2003).
“And” between values parts separate entries of the source, which are not always exact repeats. Identical values can stand only once. “Also recorded” adds a separate entry of the source. Like-named read-outs stand apart in the source and are kept apart here.

How the values were obtained:
HT-29 colon cancer cells [1] = assay: HT-29 colony formation in soft agarose; format: cell-based, human; details: for IC50: HT-29 colonies in soft agarose, 7 days exposure, mean of 3 determinations ± S.E.
Procedure: Specifically, anti-tumor activity was assessed by growing HT-29 colon cancer cells colonies in soft agarose which were then exposed to compounds according to the invention for 7 days and the colonies then counted.

PI-3kinase = details: previously found; cited from earlier work
bovine PI-PLC = assay: In vitro inhibition of bovine PI-PLC; format: biochemical
[2] = tested on: MCF-7 human breast cancer xenografts; assay: in vivo; format: in vivo; details: for T/C: p<0.05
From the text: (§1) Also, the relative ability of D-3-deoxy-PtdIns and OMDPI, when administered i.p. as a daily micellar suspension to inhibit the growth of MCF-7 human breast cancer xenografts in SCID mice, was further evaluated. […] […]. These were the maximum tolerated doses that could be given by these schedules. […].

HT-29 colon cancer cells [3] = details: as reported earlier (J. Med. Chem. 1995; U.S. Pat. No. 5,227,508); read-out: IC50 for inhibition of colony formation by HT-29 human colon carcinoma cells; cited from earlier work
[4] = Preliminary toxicology in BALB/C mice; format: in vivo, male BALB/C mice; details: for Weight Change %: killed 24 hr after last dose
Procedure: In order to evaluate clinical safety, toxicity tests were conducted by administering DPI or OMDPI to groups of 4 male BALB/C mice daily by i.p. injection for 5 days at the maximum tolerated dose. […] Moreover, there was a 33% decrease in total white blood cell count. It should be noted, however, that this is not sufficient for a cytotoxic drug to be considered myelosuppresive.
As discussed, Table 4 contains the toxicity results obtained with groups of 4 male BALB/C mice, which were administered the compounds daily by i.p. injection for 5 days at the doses shown and killed 24 hr after the last dose. Values are mean±S.E. The p values are shown only where there was a significant difference to control.

human Akt = human Akt (Homo sapiens, UniProt P31749); assay: Inhibition of PDGF-stimulated Akt activation in transfected NIH 3T3 cells; format: cell-based; details: 6 hours exposure, listed as D-3-deoxy-PtdIns
Chain of human Akt (P31749 whole entry): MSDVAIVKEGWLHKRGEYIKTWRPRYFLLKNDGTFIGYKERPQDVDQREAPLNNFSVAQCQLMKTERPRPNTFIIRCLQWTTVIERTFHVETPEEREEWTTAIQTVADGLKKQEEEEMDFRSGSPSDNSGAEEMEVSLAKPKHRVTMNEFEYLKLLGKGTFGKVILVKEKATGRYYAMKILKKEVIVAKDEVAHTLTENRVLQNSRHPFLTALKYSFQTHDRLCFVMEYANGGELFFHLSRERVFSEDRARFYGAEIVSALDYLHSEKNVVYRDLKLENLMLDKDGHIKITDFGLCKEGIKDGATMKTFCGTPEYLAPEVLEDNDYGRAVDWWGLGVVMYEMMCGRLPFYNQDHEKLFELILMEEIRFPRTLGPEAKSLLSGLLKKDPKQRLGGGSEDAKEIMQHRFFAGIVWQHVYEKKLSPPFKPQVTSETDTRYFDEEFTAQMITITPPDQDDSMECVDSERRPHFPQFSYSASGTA

HT-29 human colon cancer = assay: Anti-tumor activity against established HT-29 human colon cancer in SCID mice; details: for T/C % / Tumor volume on day 10: qd 4-7; for Tumor volume on day 10: mean of 8 mice with S.E.
[5] = biological target: T1, bovine brain p110/p85 PI-3-kinase (Bos taurus, UniProt P32871); assay: In vitro inhibition of bovine brain p110/p85 PI-3-kinase; format: biochemical
T1 construct: from tissue; host or cells: bovine brain
T1 sequence (P32871 whole entry): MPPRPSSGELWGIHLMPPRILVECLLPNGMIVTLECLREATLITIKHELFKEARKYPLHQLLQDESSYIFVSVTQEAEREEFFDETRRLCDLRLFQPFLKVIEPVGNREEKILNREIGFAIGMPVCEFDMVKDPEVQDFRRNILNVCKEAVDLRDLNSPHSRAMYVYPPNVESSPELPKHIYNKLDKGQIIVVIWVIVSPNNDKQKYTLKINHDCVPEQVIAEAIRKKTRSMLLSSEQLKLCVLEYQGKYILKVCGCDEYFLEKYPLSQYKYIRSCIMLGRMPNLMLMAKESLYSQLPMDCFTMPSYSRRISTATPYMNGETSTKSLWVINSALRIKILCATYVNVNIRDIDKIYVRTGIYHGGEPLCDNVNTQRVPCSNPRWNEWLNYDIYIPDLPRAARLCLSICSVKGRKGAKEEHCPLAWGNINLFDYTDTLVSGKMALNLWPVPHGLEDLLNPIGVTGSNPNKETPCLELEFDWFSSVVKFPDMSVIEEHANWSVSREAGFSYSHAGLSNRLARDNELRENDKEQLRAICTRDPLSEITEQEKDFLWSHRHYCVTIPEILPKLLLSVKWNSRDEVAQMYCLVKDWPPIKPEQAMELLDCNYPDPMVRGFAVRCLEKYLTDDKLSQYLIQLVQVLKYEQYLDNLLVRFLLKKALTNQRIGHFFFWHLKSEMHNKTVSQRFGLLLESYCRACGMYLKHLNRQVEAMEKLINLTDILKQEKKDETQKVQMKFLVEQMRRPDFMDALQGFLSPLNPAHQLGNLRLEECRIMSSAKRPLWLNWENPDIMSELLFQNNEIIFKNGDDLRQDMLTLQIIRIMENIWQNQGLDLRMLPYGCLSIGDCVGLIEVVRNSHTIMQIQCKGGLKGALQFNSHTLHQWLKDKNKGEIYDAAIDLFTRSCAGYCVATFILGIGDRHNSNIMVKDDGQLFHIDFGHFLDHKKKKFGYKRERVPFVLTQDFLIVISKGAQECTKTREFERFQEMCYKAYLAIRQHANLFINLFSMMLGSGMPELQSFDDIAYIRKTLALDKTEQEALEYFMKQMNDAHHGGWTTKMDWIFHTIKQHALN
T1 sequence (P23727 whole entry partner): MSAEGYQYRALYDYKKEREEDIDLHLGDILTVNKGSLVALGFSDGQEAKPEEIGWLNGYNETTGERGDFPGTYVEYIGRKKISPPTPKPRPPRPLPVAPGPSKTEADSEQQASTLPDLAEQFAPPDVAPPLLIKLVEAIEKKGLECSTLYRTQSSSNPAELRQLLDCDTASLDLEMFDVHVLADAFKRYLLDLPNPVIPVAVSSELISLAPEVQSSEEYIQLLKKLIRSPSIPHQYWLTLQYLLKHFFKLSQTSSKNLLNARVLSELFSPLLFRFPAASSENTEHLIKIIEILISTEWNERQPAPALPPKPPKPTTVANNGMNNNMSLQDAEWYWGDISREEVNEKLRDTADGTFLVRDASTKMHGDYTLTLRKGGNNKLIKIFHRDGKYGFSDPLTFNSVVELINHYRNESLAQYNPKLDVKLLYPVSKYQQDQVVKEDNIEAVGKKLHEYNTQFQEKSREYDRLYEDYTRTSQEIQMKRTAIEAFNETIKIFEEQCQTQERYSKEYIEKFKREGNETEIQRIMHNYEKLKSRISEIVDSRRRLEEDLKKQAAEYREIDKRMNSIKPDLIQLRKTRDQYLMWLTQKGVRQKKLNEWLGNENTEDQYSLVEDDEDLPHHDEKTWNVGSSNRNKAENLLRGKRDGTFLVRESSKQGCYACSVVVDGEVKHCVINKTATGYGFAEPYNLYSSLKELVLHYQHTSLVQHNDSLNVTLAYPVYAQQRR
From the text: Schultz et al.; Anticancer Res., 15:1135-1140 (1995)).

in vivo = format: in vivo; details: SCID, mouse, in vivo, ip, read-out: maximum tolerated dose
From the text: as §1

Aqueous solubility = format: physicochemical; details: aqueous with cosolvent or surfactant or cyclodextrin; in 0.1% Tween 20, opalescent solution
From the text: Therefore, OMDPI should be readily formulated for intravenous use, should this be determined to be the optimal route for clinical administration.

[6] = administered orally as well as parenterally; cited from earlier work
[7] = 300 mg/kg i.p. daily for 5 days
[8] = 100 mg/kg i.p. daily for 5 days
[9] = 100 mg/kg i.p. daily for 5 days, listed as OMDPI
[10] = 100 mg/kg i.p. daily for 5 days, listed as deoxy-PtdIns Ether Lipid
[11] = maximum tolerated dose i.p. daily for 5 days

2,3-dideoxy-PtdIns
IC50 (HT-29 colon cancer cells [1]): 50 ± 7 µM

3-chloro-3-deoxy-PtdIns [reference compound]
growth inhibition at maximum tested concentration (HT-29 colon cancer cells [1]; HT-29 colony formation): < 20%

CCCCCCCCCCCCCCCCCCOC[C@H](COP(=O)(O)OC1C(O)C(O)C(O)C(O)C1O)OC (some centres unmarked) [1-O-octadecyl-2-O-methyl-sn-glycero-3-phospho-myo-inositol]
IC50 (PI-3kinase): 90 µM | inhibition of cancer cell growth (HT-29 colon cancer cells [1]; in words): only a weak inhibitor | PI-PLC IC50 (bovine PI-PLC; same assay conditions as Table 2): poor inhibitor

CCCCCCCCCCCCCCCC(=O)OCC(COP(=O)(O)OC1C(O)CC(O)C(O)C1O)OC(=O)CCCCCCCCCCCCCCC (centres unmarked) [(30), 3-deoxy-phosphatidyl-myo-inositol, reference compound]
T/C ([2]; i.p. daily micellar suspension, dose not given): 62% | IC50 (HT-29 colon cancer cells [3]): 35 µM | ALT [4, 7]: 30.5 | BUN [4, 7]: 15.7 | Platelets × 10^6 [4, 7]: 0.9 × 10^6 | Total Protein [4, 7]: 4.6 | White blood cells [4, 7]: 7.9 | Weight Change % [4, 7]: −4.3 ± 1.9% | Akt activation (human Akt): blocks the activation of Akt; also recorded: blocked Akt activation | T/C % (HT-29 human colon cancer; 250 mg/kg i.p.): 111.1% | Tumor volume on day 10 (HT-29 human colon cancer; 250 mg/kg i.p.): 0.30 ± 0.06 cm^3 | lethality (HT-29 human colon cancer; 500 mg/kg i.p., qd 4-5): lethal | anti-tumor activity (HT-29 human colon cancer; half of 500 mg/kg daily i.p.): no anti-tumor activity | IC50 (HT-29 colon cancer cells [1]): 35 µM | PtdIns-PLC IC50 (bovine PI-PLC): N/A (N/A = not active, with <20% inhibition at 100 gM.)

CCCCCCCCCCCCCCCC(=O)OCC(COP(=O)(O)OC1C(O)C(O)C(O)C(F)C1O)OC(=O)CCCCCCCCCCCCCCC (centres unmarked) [(35), 3-Fluoro-3-deoxy-PtdIns, reference compound]
IC50 (HT-29 colon cancer cells [3]): 37 µM | IC50 (HT-29 colon cancer cells [1]): 37 µM

CCCCCCCCCCCCCCCC(=O)OCC(CCP(=O)(O)OC1C(O)CC(O)C(O)C1O)OC(=O)CCCCCCCCCCCCCCC [(50), 1-O-[(3S)-3,4-bis(palmitoyloxy)butylphosphonyl]-1D-3-deoxy-myo-inositol]
PI-3-K IC50 [5]: N/A (N/A = not active, with <20% inhibition at 100 gM.) | fold increase in growth inhibitory activity compared to DPI (HT-29 colon cancer cells [1]; HT-29 colony formation, versus (30)): > 3 fold and ~3 fold | IC50 (HT-29 colon cancer cells [1]; Homo sapiens, 168 h): 10 µM | PtdIns-PLC IC50 (bovine PI-PLC): N/A (N/A = not active, with <20% inhibition at 100 gM.)

CCCCCCCCCCCCCCCCCCOCC(COP(=O)(O)OC1C(O)CC(O)C(O)C1O)OC (centres unmarked) [(60), 1-O-(2-O-methyl-1-O-octadecyl-sn-glycero-3-phospho)-1D-3-deoxy-myo-inositol]
T/C ([2]; 75 mg/kg i.p. for 10 days): 20% | T/C ([2]; 100 mg/kg i.p. for 5 days): 39% | inhibition of the growth of MCF-7 breast cancer ([2]; 4 or 5 day daily i.p. schedule): 60% | inhibition of the growth of MCF-7 breast cancer xenografts ([2]; 10 day schedule): 80% | MTD at 5 days (in vivo; daily i.p. for 5 days): 100 mg/kg | MTD at 10 days (in vivo; daily i.p. for 10 days): 75 mg/kg | solubility (Aqueous solubility): ≥ 10000 µg/mL | ALT [4, 8]: 32.7 | BUN [4, 8]: 18.7 | Total Protein [4, 8]: 4.9 | White blood cells [4, 8]: 5.8 | Weight Change % [4, 9]: no effect | Weight Change % [4, 10]: +2.3 ± 1.5% | Platelets × 10^6 [4, 9]: no effect | Platelets × 10^6 [4, 10]: 0.9 × 10^6 | liver, renal toxicity ([4]; in words): not liver or renal toxic | myelosuppression ([4]; in words): only weakly myelosuppresive | decrease in total white blood cell count [4, 11]: 33% | serum liver or kidney enzymes [4, 11]: did not result in elevation | T/C % (HT-29 human colon cancer; 50 mg/kg i.p.): 103.7% | Tumor volume on day 10 (HT-29 human colon cancer; 50 mg/kg i.p.): 0.258 ± 0.05 cm^3 | T/C % (HT-29 human colon cancer; 100 mg/kg i.p.): 118.0% | Tumor volume on day 10 (HT-29 human colon cancer; 100 mg/kg i.p.): 0.32 ± 0.09 cm^3 | T/C % (HT-29 human colon cancer; 150 mg/kg i.p.): 33.3% | Tumor volume on day 10 (HT-29 human colon cancer; 150 mg/kg i.p.): 0.09 ± 0.07 cm^3 | toxicity at the highest dose tested (HT-29 human colon cancer; 150 mg/kg per day i.p.): not toxic | inhibition of tumor growth (HT-29 human colon cancer; 150 mg/kg per day, 4 daily i.p. injections): 67% | anti-tumor activity (HT-29 human colon cancer; 100 and 50 mg/kg per day i.p.): did not elicit anti-tumor activity | IC50 (HT-29 colon cancer cells [1]; listed as OMDPI (60)): 2.1 ± 0.1 µM | IC50 (HT-29 colon cancer cells [1]; Homo sapiens, HT-29, 168 h): 2 µM

CCCCCCCCCCCCCCCCCCOCC(CCP(=O)(O)OC1C(O)CC(O)C(O)C1O)OC [(90), 1-O-[(3S)-methoxy-4-(octadecyloxy)butylphosphonyl]-1D-3-deoxy-myo-inositol]
IC50 (HT-29 colon cancer cells [1]; Homo sapiens, 168 h): 45 µM

O=P1(N(CCCl)CCCl)NCCCO1 (centres unmarked) [cyclophosphamide, reference compound]
inhibition of the growth of MCF-7 xenografts ([2]; 265 mg/kg on day 5, positive control): 43%

CCCCCCCCCCCCCCCCOP(=O)([O-])OCC[N+](C)(C)C [mitelfosine, hexadecylphosphocholine]
clinical anti-tumor activity [6]: have shown clinical anti-tumor activity
